One data set deals with CYP1A2 and CYP2C19. Format: biochemical. How it is done: The bioassay was performed in a 96-well plate. 80 μL of sample is added to wells in triplicate. […] After the preparation, 10 μL of enzyme mixture were added to each plate. After incubating at room temperature 10 μL of substrate mixture (5 μM of substrate EOMCC and 30 μM Vivid® NADP^+ diluted in working buffer) was added. The plate was incubated 30 minutes at 30° C. and when time passed, fluorescence signal was measured with a fluorometric reader, 410 nm and 460 nm were the excitation and emission wavelengths, respectively. A blank sample, buffer solution, was measured at the same time and the reduction of the signal, inhibition of enzyme activity, was calculated and associated with the presence of contaminants.

Data set [1] deals with T1, CYP3A4 (Homo sapiens, UniProt P08684). Type of data set: biochemical. The conditions noted are these: CYP3A4, DBF substrate; concentration providing 20% inhibition (IC20). As for the experimental part: (§1) The bioassay was performed in a 96-well plate. 50 μL of a solution containing PAHs or BFRs is added to wells in triplicate. […] After incubating at room temperature 10 μL of substrate mixture (5 μM of substrate (EOMCC for CYP1A2, BOMCC for CYP2B6 or DBF for CYP3A4) and 30 μM Vivid® NADP^+ diluted in working buffer) was added. The plate was incubated 30 minutes at 25° C. and when time passed, fluorescence signal was measured with a fluorometric reader, 410/490 nm and 460/520 nm were the excitation and emission wavelengths, respectively. A blank sample, buffer solution, was measured at the same time and the reduction of the signal, inhibition of enzyme activity, was calculated and associated with the presence of contaminants.

Data set [2] has as its target T1, CYP3A4. Format: biochemical. As to conditions: for Inhibition percentage I (%): lateral flow reader; for Limit of detection: CYP3A4 lateral flow, concentration providing 20% of inhibition, estimated. How it is done: The metabolism of two different fluorescent substrates was used to determine the percent of inhibition of CYP3A4 as response to the contaminant concentrations. The enzymatic reactions were carried out in 96-well plates adding 80 μL of potassium phosphate buffer (100 mM, pH 8.0) or 100 ng/mL of standard solutions in duplicates. Both brominated compounds were prepared in potassium phosphate buffer (100 mM, pH 8.0) and tested as inhibitors of CYP3A4 activity. […] Subsequently, 10 μL of enzyme mixture were added to each well, homogenised and allowed to pre-incubate during 10 minutes at room temperature. Two different substrate mixtures were used in combination with brominated molecules. To evaluate the inhibition promoted by BDE-100, 10 μL of a substrate mixture containing 2 μM of DBF and 30 μM Vivid® NADP+ in potassium phosphate buffer (100 mM, pH8.0), were added to the appropriated wells. The inhibitory effect of HBCD concentration was tested for a substrate mixture, containing 2 μM of DBOMF and 30 μM Vivid® NADP+ prepared in potassium phosphate buffer (100 mM, pH8.0), from which 10 μL were added to the appropriated wells. After the addition of the respective substrate probes, the plate was newly incubated at 25° C. for 60 minutes. The resulting reaction broths were diluted 10 and 20 times in buffer, for respectively DBF and BDE-100, and for DBOMF and HBCD reactions. Finally, 1.5 μL of diluted broths were pipetted as a line onto nitrocellulose membranes and the fluorometric measurements carried out at a lateral flow reader (ESEQuant LR3, QIAGEN) with a fluorometric channel of 470 nm and 520 nm as excitation and emission wavelengths, respectively. A blank sample, buffer solution, was measured at the same time and the reduction of the signal, inhibition of enzyme activity, was calculated and associated with the presence of each BDE, as shown in Table 5.
Considering the signal intensity developed for different levels of the contaminant molecules, the concentration providing 20% of inhibition was selected as limit of detection, estimated to be 36 ng/mL and 14 ng/mL for BDE-100 and HBCD, respectively.

A further data set deals with CYP2B10 (Mus musculus, UniProt P12791). The conditions noted are these: CYP2B10, 3 μM BOMCC; concentration that induces 20% inhibition (Table 8).
The target of data set [3] is T1, CYP3A4. The conditions noted are these: pH 8.
Data set [4] concerns the target T2, CYP2B6 (Homo sapiens, UniProt P20813). As to conditions: pH 7.4.
Data set [5] deals with T2, CYP2B6. Type of data set: biochemical. As for the experimental part:
as §1

The target in data set [6] is T1, CYP3A4. Type of data set: biochemical. The conditions noted are these: CYP3A4 electrochemical biosensor, 50 μM progesterone, estimated. As for the experimental part: The working electrodes (WE) of screen-printed carbon electrodes (SPCE) (C110, from Methrom-Dropsens), were modified with 3 μL suspension of 1 mg/mL of single-walled carbon nanotubes. After chloroform evaporation, 5 μL of a 0.08 nmol/mL solution of CYP3A4 (recombinant, expressed in E. Coli from Sigma-Aldrich) was deposited onto the modified WE surface and incubated overnight at 4° C. 100 mM of potassium phosphate buffer saline (PBS) at pH 8.0, containing 50 mM of potassium chloride, was used to prepare the standards, as well as a supporting electrolyte for the electrochemical measurements. Aliquots (60 μL) of 50 μM progesterone solutions containing 0, 50, 100, 200 and 300 ng/mL of HBCD, were placed onto the working area of the SPCE by drop-casting, incubated for 2 minutes at room temperature and the electrochemical measurements performed. For each sample, one cyclic voltammetric scan was carried out, sweeping the potential from −0.75 V to 0.30 V at 0.02 V/s. The peak height of the cathodic peaks generated near to −0.55 V was registered and HBCD presence, calculated using as reference the peak of the blank assay (buffer solution). The electrochemical signal registered at CYP3A4-based biosensor, respond to the concentration of HBCD, allowing to establish the I (%) values for different concentrations of this compound (FIG. 1). Limit of detection was estimated to be 42.8 ng/mL for HBCD.

Setting [7] is: CYP2B6, BOMCC substrate, concentration providing 20% inhibition (IC20).

Like-named read-outs stand apart in the source and are kept apart here.

Consider 19 compounds from patent publication US20240060949A1, “BIOSYSTEMS TO DETECT CHEMICAL CONTAMINANTS” (priority 2020, published 2024).

T2 sequence (P20813 whole entry): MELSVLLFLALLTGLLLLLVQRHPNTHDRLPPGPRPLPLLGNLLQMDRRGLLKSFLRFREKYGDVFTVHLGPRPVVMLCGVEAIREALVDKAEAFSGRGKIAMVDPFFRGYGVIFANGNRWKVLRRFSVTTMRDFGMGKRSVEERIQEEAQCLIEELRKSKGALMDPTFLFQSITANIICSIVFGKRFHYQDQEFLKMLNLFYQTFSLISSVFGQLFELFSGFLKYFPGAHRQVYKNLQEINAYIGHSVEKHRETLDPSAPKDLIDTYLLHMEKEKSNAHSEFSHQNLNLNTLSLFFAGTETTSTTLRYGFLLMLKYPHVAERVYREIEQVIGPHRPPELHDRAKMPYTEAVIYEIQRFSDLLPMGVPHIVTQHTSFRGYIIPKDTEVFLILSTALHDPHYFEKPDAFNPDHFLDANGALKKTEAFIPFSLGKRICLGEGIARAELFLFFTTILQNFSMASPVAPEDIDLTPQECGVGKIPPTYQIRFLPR
T1 sequence (P08684 whole entry): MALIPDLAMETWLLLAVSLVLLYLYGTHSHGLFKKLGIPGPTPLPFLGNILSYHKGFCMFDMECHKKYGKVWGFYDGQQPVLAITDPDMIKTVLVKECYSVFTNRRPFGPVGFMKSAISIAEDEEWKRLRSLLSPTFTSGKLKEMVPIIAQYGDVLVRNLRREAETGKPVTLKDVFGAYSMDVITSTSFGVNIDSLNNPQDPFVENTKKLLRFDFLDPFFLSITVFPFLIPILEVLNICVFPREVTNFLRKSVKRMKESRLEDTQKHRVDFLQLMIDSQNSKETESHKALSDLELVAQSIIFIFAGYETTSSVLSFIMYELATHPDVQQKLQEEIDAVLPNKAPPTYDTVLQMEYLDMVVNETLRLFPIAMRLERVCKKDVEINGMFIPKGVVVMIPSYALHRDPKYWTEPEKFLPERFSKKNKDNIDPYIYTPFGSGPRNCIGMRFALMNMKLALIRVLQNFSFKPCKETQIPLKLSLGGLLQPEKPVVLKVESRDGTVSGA
CYP2B10, sequence (P12791 whole entry): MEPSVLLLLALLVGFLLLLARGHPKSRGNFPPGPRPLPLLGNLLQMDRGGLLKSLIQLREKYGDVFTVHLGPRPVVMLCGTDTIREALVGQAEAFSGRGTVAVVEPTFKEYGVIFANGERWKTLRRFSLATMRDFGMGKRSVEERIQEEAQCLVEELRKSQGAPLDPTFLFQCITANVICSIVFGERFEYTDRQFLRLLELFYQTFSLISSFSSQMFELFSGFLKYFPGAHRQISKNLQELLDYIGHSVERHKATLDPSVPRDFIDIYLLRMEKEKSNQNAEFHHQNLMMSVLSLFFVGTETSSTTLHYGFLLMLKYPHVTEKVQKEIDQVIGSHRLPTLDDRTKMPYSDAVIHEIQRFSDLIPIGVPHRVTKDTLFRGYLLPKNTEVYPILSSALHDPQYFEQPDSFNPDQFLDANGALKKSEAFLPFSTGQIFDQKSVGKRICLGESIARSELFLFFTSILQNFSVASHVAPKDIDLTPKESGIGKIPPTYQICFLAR

Compound 13,19-didesmethyl C spirolide returned a Limit of detection in the data set with CYP1A2 and CYP2C19 of 10 µg/L. Consider `C=C(C[C@@]12C[C@@H](C)C[C@H](O1)[C@H]1O[C@]3(C[C@H]1O2)NC[C@H](C)C[C@@H]3C)[C@H]1O[C@@](O)([C@@H](O)[C@@H]2C[C@H]3O[C@@]4(CC[C@]5(CC=C[C@@H](/C=C/CCC(=O)O)O5)O4)[C@H](C)C[C@H]3O2)[C@H](C)C[C@@H]1C` [Azaspiracid-1], for which the Limit of detection in the data set on CYP1A2 and CYP2C19 (CYP1A2 and CYP2C19, 5 μM EOMCC, concentration that induces 20% inhibition) worked out at 3 µg/L. At CYP3A4 [1], `Brc1ccc(Oc2ccc(Br)cc2Br)cc1` [BDE-28, 2,4,4′-Tribromodiphenyl ether] showed a Limits of detection of 100 ng/mL. On the same count and under the same terms, as for `Brc1ccc(Oc2ccc(Br)cc2Br)c(Br)c1` [BDE-47, 2,2′,4,4′-Tetrabromodiphenyl ether], the figure is 5 ng/mL; as for `Brc1ccc(Oc2cc(Br)c(Br)cc2Br)c(Br)c1` [BDE-99, 2,2′,4,4′,5-Pentabromodiphenyl ether], 100 ng/mL.

Turning to `Brc1ccc(Oc2c(Br)cc(Br)cc2Br)c(Br)c1` [BDE-100, 2,2′,4,4′,6-Pentabromodiphenyl ether], the “Inhibition percentage I (%)” value on CYP3A4 [2] (CYP3A4, 2 μM DBF, 100 ng/ml contaminant) is on record as 55.4%. For the same compound, the Limit of detection at CYP3A4 [2] (DBF substrate) is 36 ng/mL. At CYP3A4 [1], this compound showed a Limits of detection of 5 ng/mL. On to `Brc1cc(Br)c(Oc2cc(Br)c(Br)cc2Br)cc1Br` [BDE-153, 2,2′,4,4′,5,5′-Hexabromodiphenyl ether], for which, on CYP3A4 [1], the Limits of detection was 5 ng/mL. In turn, `Brc1cc(Br)c(Oc2cc(Br)c(Br)cc2Br)c(Br)c1` [BDE-154, 2,2′,4,4′,5,6′-Hexabromodiphenyl ether] returned a Limits of detection at CYP3A4 [1] of 5 ng/mL. Still for that read-out and setting: the figure for `Brc1c(Br)c(Br)c(Oc2c(Br)c(Br)c(Br)c(Br)c2Br)c(Br)c1Br` [BDE-209, Decabromodiphenyl ether] is 10 ng/mL. For `[CH3][Hg][Cl]` [Methylmercury], at CYP2B10, the “Limits of detection CYP2B10” value is 44.3 ng/mL.

For `N[C@@H](CCC(=O)O)C(=O)[O-].[Na+]` [Monosodium glutamate], the “Limits of detection CYP3A4” value on CYP3A4 [3] was found to be 3.6 mg/mL. For `O=C([O-])c1ccccc1.[Na+]` [Sodium Benzoate], the “Limits of detection CYP2B10” value on CYP2B10 worked out at 3.2e+06 ng/mL. On to `O=NO` [Sodium Nitrite], for which, at CYP2B6 [4], the “Limits of detection CYP2B6” value is 2.3 mg/mL.

In the data set with CYP1A2 and CYP2C19 (human), `C=CCC(=C)/C=C/[C@@](C)(O)[C@H]1O[C@@H]2C[C@@H]3O[C@@H]4C[C@@H]5O[C@@H]6C[C@@H]7O[C@@H]8C[C@@H]9O[C@@H]%10C[C@@H]%11O[C@](C)(CCOS(=O)(=O)O)[C@@H](OS(=O)(=O)O)C[C@H]%11O[C@H]%10C[C@H]9O[C@H]8CC[C@@]7(C)O[C@@]6(C)CC[C@H](C)[C@H]5O[C@H]4C[C@@]3(C)O[C@H]2CC1=C` [Yessotoxin] yielded a Limit of detection of 45 µg/L.

`c1ccc2cc3c(ccc4ccccc43)cc2c1` [benz(a)anthracene (BaA), benz(a)anthracene]: the Limit of detection on CYP2B6 [5] (human) is 5 µg/L. In turn, `c1ccc2c(c1)cc1ccc3cccc4ccc2c1c34` [benzo(a)pyrene (BaP), benzo(a)pyrene] returned a Limit of detection on CYP2B6 [5] (setting [7]) of 15 µg/L. As for `c1ccc2c(c1)-c1cccc3c1c-2cc1ccccc13` [benzo(b)fluoranthene (BbF), benzo(b)fluoranthene], on CYP2B6 [5] (setting [7]), the Limit of detection is 20 µg/L.

Take `c1ccc2c(c1)ccc1c3ccccc3ccc21` [chrysene (Chrys), chrysene]: the Limit of detection on CYP2B6 [5] (setting [7]) came out at 10 µg/L. Take Hexabromocyclododecane [HBCD]: the figures for the Limit of detection at CYP3A4 [6] and on CYP3A4 [2] (DBOMF substrate) were 42.8 ng/mL and 14 ng/mL, respectively. The “Inhibition percentage I (%)” value on CYP3A4 [2] (CYP3A4, 2 μM DBOMF, 50 ng/mL contaminant) was determined as 69.8%; on CYP3A4 [2] (CYP3A4, 2 μM DBOMF, 100 ng/mL contaminant) it was 84.3%.
